Columns and labels:
Format in all cases: in vivo
[1] = test system: HFD-induced obese C57BL/6J mice; test: Body weight gain, food intake and food efficiency ratio in HFD-induced obese mice; details: vs HFD group; for body weight gain: HFD mice, oral gavage 12 weeks, CX 10 and 30 mg/kg/day, EGCG 30 mg/kg/day; for food efficiency ratio (FER): 12 weeks
Excerpt: (§1) To determine the effect of CX (Sigma, Inc., USA) on obesity and non-alcoholic fatty liver disease (NAFLD) in vivo, we established an experimental approach using HFD-induced obese C57BL/6J mice. CX was suspended in 0.5% methylcellulose solution for oral administration. The animals used in the examples are described below. 5-week-old male C57BL/6J mice were purchased from The National Laboratory Animal Center, Taipei, Taiwan and were maintained in a temperature-controlled room on a 12-h light-dark cycle. They were housed with four per cage and had free access to food and drinking water. Mice fed with a standard diet and adapted to the environment for 1 week were subsequently divided randomly into five groups. The ND group (n=8) continued on the same diet, whereas the other four groups (n=8 per group) were switched to the HFD (494 kcal/100 g, 45% energy as fat; TestDiet Inc., USA). Among the four HFD groups, three groups started to receive CX at 10 mg/kg/day (CX10 group), CX at 30 mg/kg/day (CX30 group), and epigallocatechin gallate (EGCG) (Sigma, Inc., USA) at 30 mg/kg/day (EGCG30 group) by oral gavage. EGCG was suspended in 0.5% methylcellulose solution for oral administration. Food consumption and weight gain were measured daily and weekly, respectively. After 12 weeks, all mice were sacrificed. Serum samples, liver tissue, epididymis adipose tissue and feces were harvested for further analysis. The experimental protocol was approved by the Animal Research Committee of the National Yang Ming Chiao Tung University (IACUC no. 1091013), and all procedures followed The Guide for the Care and Use of Laboratory Animals (NIH publication, 85-23, revised 1996) and the guidelines of the Animal Welfare Act, Taiwan.

[2] = test system: HFD-induced obese C57BL/6J mice; test: Fasting blood glucose, IPGTT and insulin resistance in HFD-induced obese mice; details: for fasting blood glucose: since the second week, 16 h fasting; for insulin resistance index HOMA-IR / fasting insulin concentration (insulin expression): 12 weeks; for insulin resistance index HOMA-IR: compared with the HFD group; for fasting insulin concentration (insulin expression): serum; for AUC of IPGTT: week 12, glucose 1.0 g/kg i.p., vs HFD group
Excerpt: as §1, with “The” for “To determine the effect of CX (Sigma, Inc., USA) on obesity and non-alcoholic fatty liver disease (NAFLD) in vivo, we established an experimental approach using HFD-induced obese C57BL/6J mice. CX was suspended in 0.5% methylcellulose solution for oral administration. The”, “Taiwan. The procedure regarding blood glucose and intraperitoneal glucose tolerance test (IPGTT) is as follows. After a 16 h overnight fasting period, whole-blood glucose was measured with a glucose analyzer ([…], Taiwan). An enzymatic assay was used to measure the serum insulin concentration (Cisbio, USA). Intraperitoneal glucose tolerance tests (IPGTTs) were performed in all mice 12 weeks after the start of the study. Mice fasted for 16 h were injected intraperitoneally with glucose 1.0 g/kg body weight, blood glucose levels were measured in tail vain blood at 0, 30, 60, 90, 120 and 150 min.” for “Taiwan.”

[3] = test system: HFD-induced obese C57BL/6J mice; test: Renal function markers in HFD-induced obese mice; details: for serum CRE level, difference to ND group: 30 mg/kg/day oral, CX30, ND and EGCG groups compared; for serum CRE level, difference to ND group / serum uric acid (UA) level, difference to ND group: 12 weeks; for serum uric acid (UA) level, difference to ND group: CX 10-30 mg/kg/day, EGCG 30 mg/kg/day oral, compared with ND group
Excerpt: as §1, with “The” for “To determine the effect of CX (Sigma, Inc., USA) on obesity and non-alcoholic fatty liver disease (NAFLD) in vivo, we established an experimental approach using HFD-induced obese C57BL/6J mice. CX was suspended in 0.5% methylcellulose solution for oral administration. The”, “Taiwan. The procedure regarding biochemical characterization is as follows. The serum triglyceride (TG), total cholesterol (TC), high-density lipoprotein-cholesterol (HDL-C), glutamic oxaloacetic transaminase (GOT), glutamic pyruvic transaminase (GPT), albumin (ALB), uric acid (UA), and creatinine (CRE) levels were measured using enzymatic assay kits with a FUJI DRI-CHEM analyzer (Fujifilm, Tokyo, Japan). The LDL-C level was calculated as [(TC)-(HDL-C)-(TG/5)].” for “Taiwan.”

[4] = CX treatment vs HFD group, 12 weeks oral

| Compound | body weight gain [1] | fasting blood glucose ([2]; 30 mg/kg/day oral) | serum CRE level, difference to ND group [3] | serum uric acid (UA) level, difference to ND group [3] | food efficiency ratio (FER) ([1]; 10 mg/kg/day oral gavage) | food efficiency ratio (FER) ([1]; 30 mg/kg/day oral gavage) | insulin resistance index HOMA-IR ([2]; 10 mg/kg/day oral) | fasting insulin concentration (insulin expression) ([2]; 10 mg/kg/day oral) | fasting blood glucose ([2]; 10 mg/kg/day oral) | AUC of IPGTT ([2]; 10 mg/kg/day oral) | insulin resistance index HOMA-IR ([2]; 30 mg/kg/day oral) | fasting insulin concentration (insulin expression) ([2]; 30 mg/kg/day oral) | AUC of IPGTT ([2]; 30 mg/kg/day oral) | serum creatinine (CRE) level [3, 4] | serum uric acid (UA) level [3, 4] |
| --- | --- | --- | --- | --- | --- | --- | --- | --- | --- | --- | --- | --- | --- | --- | --- |
| O=C(O[C@@H]1Cc2c(O)cc(O)cc2O[C@@H]1c1cc(O)c(O)c(O)c1)c1cc(O)c(O)c(O)c1 [EGCG, epigallocatechin gallate, reference compound] | significantly prevented body weight gain | stable and significantly lower than the HFD group | no significant difference | no significant difference | – | – | – | – | – | – | – | – | – | – | – |
| COc1ccc2[nH]c(=O)oc2c1 [CX, 6-methoxybenzoxazolinone] | significantly prevented body weight gain | stable and significantly lower than the HFD group | no significant difference | no significant difference | greatly reduced | greatly reduced | significantly lower | significantly lower than that of the HFD group | stable and significantly lower than the HFD group | significantly decreased | significantly lower | significantly lower than that of the HFD group | significantly decreased | decreased | decreased |
